Test results: ChEMBL document CHEMBL1201862, “PubChem BioAssay data set” (2004)
Activity calls are given as the source filed them.

Columns and labels:
[1] = test system: HeLa; test: ATP-based viability loss in HeLa cells – cell-based, CellTiter-Glo luminescence, cherry-pick samples, cytotoxicity control for MITF activator project, dose response (AID 540259); type: functional; conditions: Homo sapiens
[2] = cells; type: functional, cell-based
[3] = cells; type: functional, cell-based; remark: listed apart in the source
[4] = molecular target: T1, Exodeoxyribonuclease V (Escherichia coli (strain K12), UniProt P04993+P07648+P08394); test: RecBCD inhibition via phage-restricted bacterial growth – absorbance, V66 E. coli, mutant T4 phage, counter-screen for AddAB inhibitor project, dose response (AID 492957); type: functional, cell-based, Escherichia coli str. K-12 substr. MG1655
T1 sequence (P04993 whole entry): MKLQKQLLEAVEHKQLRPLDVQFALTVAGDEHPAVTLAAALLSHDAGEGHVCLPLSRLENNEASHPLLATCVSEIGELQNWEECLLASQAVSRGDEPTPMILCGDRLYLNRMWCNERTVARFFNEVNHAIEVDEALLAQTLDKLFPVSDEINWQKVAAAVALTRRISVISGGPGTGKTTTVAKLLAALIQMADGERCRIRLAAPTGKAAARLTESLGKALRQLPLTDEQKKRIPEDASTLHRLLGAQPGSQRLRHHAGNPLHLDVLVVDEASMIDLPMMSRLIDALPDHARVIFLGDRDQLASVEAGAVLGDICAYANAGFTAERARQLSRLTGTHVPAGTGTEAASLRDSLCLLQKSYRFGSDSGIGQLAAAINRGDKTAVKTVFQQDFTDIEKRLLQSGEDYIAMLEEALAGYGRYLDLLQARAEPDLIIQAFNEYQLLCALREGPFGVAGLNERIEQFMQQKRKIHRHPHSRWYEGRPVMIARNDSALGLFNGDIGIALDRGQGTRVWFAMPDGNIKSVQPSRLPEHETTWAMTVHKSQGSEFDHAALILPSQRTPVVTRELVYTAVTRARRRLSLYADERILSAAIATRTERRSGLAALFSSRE
T1 sequence (P07648 whole entry): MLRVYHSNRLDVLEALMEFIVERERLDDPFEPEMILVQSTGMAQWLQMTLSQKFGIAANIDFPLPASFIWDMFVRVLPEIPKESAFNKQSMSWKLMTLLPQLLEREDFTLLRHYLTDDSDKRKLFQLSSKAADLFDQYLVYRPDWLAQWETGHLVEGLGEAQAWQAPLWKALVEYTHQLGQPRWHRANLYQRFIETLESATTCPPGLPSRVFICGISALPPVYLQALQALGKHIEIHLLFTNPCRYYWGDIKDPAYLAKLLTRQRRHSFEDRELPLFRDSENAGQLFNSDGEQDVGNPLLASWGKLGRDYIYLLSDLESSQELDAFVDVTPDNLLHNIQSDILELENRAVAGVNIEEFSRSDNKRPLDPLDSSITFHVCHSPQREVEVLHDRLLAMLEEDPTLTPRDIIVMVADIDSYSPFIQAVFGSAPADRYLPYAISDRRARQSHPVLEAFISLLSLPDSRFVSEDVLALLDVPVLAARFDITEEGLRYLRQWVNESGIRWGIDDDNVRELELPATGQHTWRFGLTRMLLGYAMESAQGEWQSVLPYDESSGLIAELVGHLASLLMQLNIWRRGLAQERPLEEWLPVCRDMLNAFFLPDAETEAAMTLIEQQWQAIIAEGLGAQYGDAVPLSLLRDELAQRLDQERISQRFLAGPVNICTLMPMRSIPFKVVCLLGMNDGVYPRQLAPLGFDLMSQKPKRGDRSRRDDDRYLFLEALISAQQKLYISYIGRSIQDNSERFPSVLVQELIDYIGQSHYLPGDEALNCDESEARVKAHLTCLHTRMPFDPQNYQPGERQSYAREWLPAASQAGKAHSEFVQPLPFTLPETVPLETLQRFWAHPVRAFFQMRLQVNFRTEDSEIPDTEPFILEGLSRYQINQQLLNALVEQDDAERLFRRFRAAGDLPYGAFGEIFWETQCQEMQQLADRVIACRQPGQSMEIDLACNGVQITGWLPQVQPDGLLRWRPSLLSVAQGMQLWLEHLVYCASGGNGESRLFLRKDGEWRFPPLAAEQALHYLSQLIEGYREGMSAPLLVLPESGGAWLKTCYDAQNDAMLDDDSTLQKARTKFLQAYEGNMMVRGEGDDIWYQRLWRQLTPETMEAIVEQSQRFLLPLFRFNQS
T1 sequence (P08394 whole entry): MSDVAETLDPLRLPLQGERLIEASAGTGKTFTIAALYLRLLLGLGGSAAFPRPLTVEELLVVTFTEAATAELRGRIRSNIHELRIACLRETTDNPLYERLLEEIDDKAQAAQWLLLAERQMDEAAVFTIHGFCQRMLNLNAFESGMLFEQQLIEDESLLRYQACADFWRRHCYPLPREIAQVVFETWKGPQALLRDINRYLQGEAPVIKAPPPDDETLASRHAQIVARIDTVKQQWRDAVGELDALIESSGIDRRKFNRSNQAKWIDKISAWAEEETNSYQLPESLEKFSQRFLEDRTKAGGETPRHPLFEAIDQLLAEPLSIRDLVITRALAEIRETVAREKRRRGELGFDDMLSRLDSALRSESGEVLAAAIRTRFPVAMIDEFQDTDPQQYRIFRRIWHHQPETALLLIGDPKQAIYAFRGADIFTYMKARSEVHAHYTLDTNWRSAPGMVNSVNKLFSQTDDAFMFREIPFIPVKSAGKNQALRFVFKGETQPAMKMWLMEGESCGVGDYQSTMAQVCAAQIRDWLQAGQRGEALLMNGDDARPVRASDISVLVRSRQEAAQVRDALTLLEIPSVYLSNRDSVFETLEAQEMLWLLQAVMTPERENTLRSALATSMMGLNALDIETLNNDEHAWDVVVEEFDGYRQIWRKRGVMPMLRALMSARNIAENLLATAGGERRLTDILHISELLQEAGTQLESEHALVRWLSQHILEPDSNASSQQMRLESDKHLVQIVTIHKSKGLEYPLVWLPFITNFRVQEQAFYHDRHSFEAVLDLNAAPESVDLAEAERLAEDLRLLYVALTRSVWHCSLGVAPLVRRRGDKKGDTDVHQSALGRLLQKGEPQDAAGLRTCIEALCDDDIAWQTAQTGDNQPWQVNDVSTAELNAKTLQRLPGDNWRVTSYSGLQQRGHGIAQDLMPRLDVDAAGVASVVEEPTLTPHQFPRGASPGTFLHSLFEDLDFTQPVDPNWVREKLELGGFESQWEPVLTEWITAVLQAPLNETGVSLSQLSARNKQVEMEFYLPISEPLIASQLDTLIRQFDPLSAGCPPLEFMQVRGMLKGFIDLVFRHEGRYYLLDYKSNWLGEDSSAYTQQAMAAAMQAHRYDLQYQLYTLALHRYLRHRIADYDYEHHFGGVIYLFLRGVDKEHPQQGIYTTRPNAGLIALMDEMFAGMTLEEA

[5] = Counterscreen for AddAB inhibitors: absorbance-based bacterial cell-based high throughput dose response assay for inhibitors of bacterial viability. [Related pubchem assays (depositor defined):AID435030, AID449728, AID449731, AID488942, AID488955, AID488956]; type: functional
[6] = test system: HEK293; test: EBV LMP1 TES2 canonical NF-kB signalling blockers – cell-based, HEK293, luciferase, cherry-pick, dose response (AID 588343); type: functional; conditions: Homo sapiens
[7] = molecular target: Heat shock protein HSP 90-alpha (Homo sapiens, UniProt P07900); type: functional, organism-based
[8] = reduction of Shn3 3'UTR-driven luciferase in osteoblasts – cell-based, Clone20 osteoblasts, firefly luciferase, cherry-picked, dose response (AID 624132); type: functional;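 note: firefly luciferase luminescence from reporter carrying the Shn3 3'UTR in osteoblasts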
[9] = loss of viability in HepG2 cells – cell-based, CellTiter-Glo, cherry-picked, cytotoxicity control for Shn3 inhibitor project, dose response (AID 624134); type: functional
[10] = non-specific 3'UTR reporter inhibition in Clone20-Shn3RL – cell-based, Renilla luciferase, cherry-picked, counter-screen for Shn3 inhibitor project, dose response (AID 624133); type: functional
[11] = THP-1 cell cytotoxicity, dose response, cytotoxicity control for non-replicating M. tuberculosis project (AID 489025); type: functional
[12] = Vero E6 cell cytotoxicity, dose response, cytotoxicity control for non-replicating M. tuberculosis project, secondary assay (AID 492998); type: functional, VeroE6; conditions: Vero C1008
[13] = cells; type: functional
[14] = molecular target: Nuclear receptor subfamily 5 group A member 2 (Homo sapiens, UniProt O00482); type: functional, cell-based;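 note: HEK293T cells transfected with LRH-1 and a StAR promoter luciferase reporter; potency for inhibitors that lower LRH-1 driven reporter light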
[15] = molecular target: Steroidogenic factor 1 (Homo sapiens, UniProt Q13285); test: Counterscreen for inverse agonists of the liver receptor homolog-1 (LRH-1; NR5A2): Luminescence-based cell-based high throughput dose response assay to identify inverse agonists of the Steroidogenic Factor 1 Nuclear Receptor (SF1; NR5A1).; type: functional
[16] = nonselective StAR promoter luciferase inhibitors – cell-based, luminescence, luciferase reporter, counter-screen for LRH-1 inverse agonist project, dose response (AID 651969); type: functional
[17] = test system: HEK293; test: inhibition of NOD1-driven NF-kB reporter – cell-based, luminescence, uHTS, primary screen (AID 1578); type: functional; conditions: Homo sapiens
[18] = test system: HEK293; test: cells; type: functional, cell-based; conditions: Homo sapiens
[19] = test system: HEK293; test: cells; type: functional, cell-based; conditions: Homo sapiens; remark: listed apart in the source
[20] = molecular target: Luciferin 4-monooxygenase (Photinus pyralis, UniProt P08659); test: inhibition of purified Photinus pyralis luciferase – biochemical, luminescence, dose response (AID 1891)
[21] = Luminescence Cell-Based Dose Confirmation HTS to Identify Inhibitors of Platelet Dense Granule Release. [Related pubchem assays: 1663 (Primary HTS), 1678 (Summary of Project)]; type: functional
[22] = molecular target: Nucleotide-binding oligomerization domain-containing protein 2 (Homo sapiens, UniProt Q9HC29); test: inhibition of NOD2-driven NF-kB reporter – cell-based, luminescence, uHTS, HEK293 (AID 1566); type: functional
[23] = test system: HEK293; test: NOD2 signaling inhibitors in MDP-stimulated cells, cell-based, uHTS, luminescence (AID 2001); type: functional; conditions: Homo sapiens
[24] = test system: HEK293; test: cells; type: functional, cell-based; conditions: Homo sapiens; remark: listed apart in the source
[25] = molecular target: T2, Cysteine protease ATG4B (Homo sapiens, UniProt Q9Y4P1); type: functional;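 note: Fluorescence-based dose-response confirmation assay measuring inhibition of ATG4B activity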
T2 sequence (Q9Y4P1 whole entry): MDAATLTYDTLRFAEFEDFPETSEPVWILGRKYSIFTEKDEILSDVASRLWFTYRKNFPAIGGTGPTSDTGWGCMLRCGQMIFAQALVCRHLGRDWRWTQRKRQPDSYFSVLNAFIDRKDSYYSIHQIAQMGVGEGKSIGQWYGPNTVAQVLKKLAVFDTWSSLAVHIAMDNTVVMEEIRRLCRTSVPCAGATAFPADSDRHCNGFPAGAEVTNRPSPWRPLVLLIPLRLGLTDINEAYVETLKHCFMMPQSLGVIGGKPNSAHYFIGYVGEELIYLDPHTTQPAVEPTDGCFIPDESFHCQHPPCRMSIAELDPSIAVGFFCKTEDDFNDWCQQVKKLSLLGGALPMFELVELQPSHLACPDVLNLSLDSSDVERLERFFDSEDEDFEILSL

[26] = HEK-293T cell viability reduction – luminescence, B-cell screen hits, cytotoxicity control for BCR NF-kB inhibitor project, dose response (AID 489021); type: functional, cell-based;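 note: HEK-293T cells carrying an NF-kB luciferase reporter; cells exposed to compound for about 14 hours before viability readout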
[27] = molecular target: Phospholipase A2 (Homo sapiens, UniProt P04054); type: functional;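 note: confirmatory dose-response counterscreen on phospholipase A2, testing hits that came from an ultra-high-throughput screen for ATG4B inhibitors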
Chain of Phospholipase A2 (P04054 whole entry): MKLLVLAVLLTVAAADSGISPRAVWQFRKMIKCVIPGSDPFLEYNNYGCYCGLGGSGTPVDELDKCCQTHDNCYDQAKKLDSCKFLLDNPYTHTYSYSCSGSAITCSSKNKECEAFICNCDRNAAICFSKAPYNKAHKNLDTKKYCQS

Chain of Luciferin 4-monooxygenase (P08659 whole entry): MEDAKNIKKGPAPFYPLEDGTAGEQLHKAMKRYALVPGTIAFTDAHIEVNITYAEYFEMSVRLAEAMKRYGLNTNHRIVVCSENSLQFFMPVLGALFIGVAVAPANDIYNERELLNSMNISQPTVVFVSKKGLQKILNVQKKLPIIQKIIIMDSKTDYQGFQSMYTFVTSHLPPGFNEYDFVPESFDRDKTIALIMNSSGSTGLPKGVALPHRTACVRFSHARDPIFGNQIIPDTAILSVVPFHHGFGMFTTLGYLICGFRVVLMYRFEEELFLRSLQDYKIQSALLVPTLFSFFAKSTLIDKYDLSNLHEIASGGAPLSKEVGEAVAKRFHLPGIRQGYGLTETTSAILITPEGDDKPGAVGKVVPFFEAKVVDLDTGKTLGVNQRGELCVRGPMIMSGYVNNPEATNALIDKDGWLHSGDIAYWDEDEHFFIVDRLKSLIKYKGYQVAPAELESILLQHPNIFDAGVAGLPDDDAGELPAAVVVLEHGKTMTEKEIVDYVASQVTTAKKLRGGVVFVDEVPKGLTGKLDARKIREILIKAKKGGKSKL
Chain of Steroidogenic factor 1 (Q13285 whole entry): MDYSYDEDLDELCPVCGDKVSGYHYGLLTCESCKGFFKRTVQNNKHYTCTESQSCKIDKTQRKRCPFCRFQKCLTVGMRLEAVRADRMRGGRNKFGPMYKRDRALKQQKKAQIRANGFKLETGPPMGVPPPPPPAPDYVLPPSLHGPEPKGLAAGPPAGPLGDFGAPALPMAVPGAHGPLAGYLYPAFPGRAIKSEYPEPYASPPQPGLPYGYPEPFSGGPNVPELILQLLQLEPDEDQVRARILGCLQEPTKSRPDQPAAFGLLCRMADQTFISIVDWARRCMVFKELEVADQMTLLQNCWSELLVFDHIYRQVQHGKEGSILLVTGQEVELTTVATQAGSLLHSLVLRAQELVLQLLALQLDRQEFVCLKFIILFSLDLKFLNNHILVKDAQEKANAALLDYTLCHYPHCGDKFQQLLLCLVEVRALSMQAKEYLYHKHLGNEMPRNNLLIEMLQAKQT
Chain of Nuclear receptor subfamily 5 group A member 2 (O00482 whole entry): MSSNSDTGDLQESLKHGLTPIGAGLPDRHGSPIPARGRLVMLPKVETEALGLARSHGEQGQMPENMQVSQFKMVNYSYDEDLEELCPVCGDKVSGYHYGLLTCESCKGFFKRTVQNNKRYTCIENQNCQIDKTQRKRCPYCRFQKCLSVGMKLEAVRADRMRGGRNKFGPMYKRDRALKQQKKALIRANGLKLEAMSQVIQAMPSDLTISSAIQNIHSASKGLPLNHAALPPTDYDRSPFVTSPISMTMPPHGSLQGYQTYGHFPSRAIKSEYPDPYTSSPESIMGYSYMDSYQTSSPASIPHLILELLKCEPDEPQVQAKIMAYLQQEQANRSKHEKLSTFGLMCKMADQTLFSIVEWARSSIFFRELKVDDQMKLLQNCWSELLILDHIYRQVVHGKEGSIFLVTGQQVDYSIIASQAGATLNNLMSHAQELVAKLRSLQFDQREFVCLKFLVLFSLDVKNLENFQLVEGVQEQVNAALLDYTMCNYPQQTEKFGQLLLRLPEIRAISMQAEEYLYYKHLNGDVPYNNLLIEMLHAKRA
Chain of Nucleotide-binding oligomerization domain-containing protein 2 (Q9HC29 whole entry, the tested form may be a part): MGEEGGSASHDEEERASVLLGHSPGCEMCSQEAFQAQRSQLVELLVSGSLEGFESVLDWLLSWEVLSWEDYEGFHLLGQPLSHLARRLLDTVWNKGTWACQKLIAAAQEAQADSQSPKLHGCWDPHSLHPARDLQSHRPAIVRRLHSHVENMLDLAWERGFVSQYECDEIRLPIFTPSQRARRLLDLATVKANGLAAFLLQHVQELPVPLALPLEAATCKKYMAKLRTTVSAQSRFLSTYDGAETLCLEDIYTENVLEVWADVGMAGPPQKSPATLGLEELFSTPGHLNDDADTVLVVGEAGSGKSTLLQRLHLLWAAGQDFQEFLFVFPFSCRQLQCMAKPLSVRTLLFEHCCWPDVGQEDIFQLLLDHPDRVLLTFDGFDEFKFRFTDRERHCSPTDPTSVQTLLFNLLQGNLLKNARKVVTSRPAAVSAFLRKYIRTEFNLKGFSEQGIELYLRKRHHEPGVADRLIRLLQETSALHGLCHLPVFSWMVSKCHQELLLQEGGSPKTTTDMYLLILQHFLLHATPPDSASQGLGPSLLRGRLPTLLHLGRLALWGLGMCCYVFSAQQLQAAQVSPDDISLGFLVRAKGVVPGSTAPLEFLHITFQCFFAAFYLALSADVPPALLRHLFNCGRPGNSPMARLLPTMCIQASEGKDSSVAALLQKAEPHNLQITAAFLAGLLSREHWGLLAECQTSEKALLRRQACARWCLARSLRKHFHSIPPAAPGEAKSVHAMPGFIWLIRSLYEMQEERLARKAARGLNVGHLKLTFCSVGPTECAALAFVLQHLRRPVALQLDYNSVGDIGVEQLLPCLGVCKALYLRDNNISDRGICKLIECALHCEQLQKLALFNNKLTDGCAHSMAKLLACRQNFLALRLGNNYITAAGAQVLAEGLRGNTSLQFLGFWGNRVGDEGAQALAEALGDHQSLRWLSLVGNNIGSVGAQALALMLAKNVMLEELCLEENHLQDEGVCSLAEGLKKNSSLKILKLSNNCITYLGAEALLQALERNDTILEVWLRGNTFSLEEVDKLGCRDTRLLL

## COc1ccc(NC2=Nc3ccccc3CC2)cc1
[1]
  AC50: > 350 µM (inactive)

## CC(C)C(=O)NC(c1cccc([N+](=O)[O-])c1)c1ccc2cccnc2c1O (centres undefined)
[2]
  EC50: 6.78 µM (active)
[3]
  EC50: > 350 µM (not active)
[4]
  IC50: > 119 µM (inactive)
[5]
  IC50: > 119 µM (inactive)
[6]
  AC50: 6.46 µM (active)
[7]
  AC50: 2.7 µM (active)
[8]
  AC50: 2.57 µM (active)
[9]
  AC50: 2.17 µM (active)
[10]
  AC50: 0.924 µM (active)

## Cc1onc(-c2ccccc2)c1C(=O)ON=C(N)c1ccc([N+](=O)[O-])o1
[4]
  IC50: > 119 µM (inactive)
[11]
  CC50: > 40 µM (active)
[12]
  CC50: > 20 µM (active)
[5]
  IC50: 69.7 µM (inactive)
[13]
  IC50: 6.29 µM (active)
[14]
  IC50: 11.1 µM (inactive)
[15]
  IC50: 2.03 µM (active)
[16]
  IC50: 35.9 µM (inactive)

## O=C(CCCN1C(=O)/C(=C/c2ccccc2Cl)SC1=S)NNC(=O)c1ccccc1
[17]
  EC50: > 20 µM (inactive)
[18]
  IC50: 3.13 µM (active)
[19]
  IC50: > 20 µM (inactive)
[20]
  EC50: > 112 µM (not active)
[21]
  EC50: > 112 µM (not active)
[22]
  EC50: > 20 µM (inactive)
[23]
  IC50: 3.04 µM (active)
[24]
  IC50: > 20 µM (inactive)
[25]
  IC50: 16.6 µM (active)
[26]
  IC50: > 80 µM (inactive)
[27]
  IC50: 5.28 µM (active)
